SMILES strings stand for the structures.

Among the data in patent US9902728B2, “Pyrrolo and pyrazolopyrimidines as ubiquitin-specific protease 7 inhibitors” (Forma Therapeutics, Inc., priority 2014, dated 2018) are IC50 values, retold here.

One assay deals with T1, USP7 (Homo sapiens, UniProt Q93009).
T1 construct: USP7, construct USP7 (208-1102) 6*His, Viva Biotech; 6xHis (C); purchased Viva Biotech
T1 sequence (Q93009 208-1102): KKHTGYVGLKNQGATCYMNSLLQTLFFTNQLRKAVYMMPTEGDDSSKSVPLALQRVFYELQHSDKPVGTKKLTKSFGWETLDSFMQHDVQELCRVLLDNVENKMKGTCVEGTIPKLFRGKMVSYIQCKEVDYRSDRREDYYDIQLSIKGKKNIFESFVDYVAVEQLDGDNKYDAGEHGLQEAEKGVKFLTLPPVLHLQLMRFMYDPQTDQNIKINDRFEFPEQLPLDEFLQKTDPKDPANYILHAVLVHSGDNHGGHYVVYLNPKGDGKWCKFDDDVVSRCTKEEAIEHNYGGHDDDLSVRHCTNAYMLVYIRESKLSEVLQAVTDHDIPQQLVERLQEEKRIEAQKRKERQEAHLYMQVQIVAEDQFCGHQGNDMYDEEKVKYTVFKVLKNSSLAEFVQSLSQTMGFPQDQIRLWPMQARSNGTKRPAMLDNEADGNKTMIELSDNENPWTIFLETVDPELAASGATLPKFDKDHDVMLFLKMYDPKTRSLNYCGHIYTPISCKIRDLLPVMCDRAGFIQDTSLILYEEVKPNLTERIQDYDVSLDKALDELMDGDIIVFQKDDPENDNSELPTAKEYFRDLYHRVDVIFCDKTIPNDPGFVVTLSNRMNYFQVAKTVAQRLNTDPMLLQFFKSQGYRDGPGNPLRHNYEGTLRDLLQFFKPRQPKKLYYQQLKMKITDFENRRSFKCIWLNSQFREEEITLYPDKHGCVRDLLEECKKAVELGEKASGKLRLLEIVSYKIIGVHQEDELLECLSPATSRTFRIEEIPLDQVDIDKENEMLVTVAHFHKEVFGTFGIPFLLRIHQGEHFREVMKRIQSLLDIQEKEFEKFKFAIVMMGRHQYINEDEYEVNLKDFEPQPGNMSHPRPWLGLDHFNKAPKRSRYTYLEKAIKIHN
The assay is described as follows: USP7 Assay A (Ubitquin-Rhodamine 110 Assay). In kind it is biochemical. Particulars: USP7 activity in USP7 assay A and B (table does not say which assay per compound); read-out: USP7_IC50. The essentials: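 Ub-Rh110 cleavage in 20 mM Tris-HCl pH 8.0 with 1 mM GSH, 0.03% BGG, 0.01% Triton X-100; compound preincubated with enzyme 30 min before substrate.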
As for `CC1(C(=O)N2CCC(O)(Cn3cnc4c(cnn4-c4cccc(OC5CCC(F)(F)CC5)c4)c3=O)CC2)CC1` [Compound I-1047], the IC50 is less than 200 nM.
The same measure, in the same setting: with `C[C@@H](CC(=O)N1CCC(O)(Cn2cnc3c(cnn3-c3ccc(N4CC[C@@](C)(O)C4)cc3)c2=O)CC1)n1cccn1` [Compound I-1052] the figure was 200 to 1000 nM; with `Cn1ccc(OC2CCC(C(=O)N3CCC(O)(Cn4cnc5c(ccn5-c5ccc(F)cc5)c4=O)CC3)CC2)n1` (stereo not shown) [Compound I-1067], 200 to 1000 nM.
For the compound `O=C(C1CCC(NC2CC2)CC1)N1CCC(O)(Cn2cnc3c(cnn3-c3ccc(F)cc3)c2=O)CC1` (stereo not shown) [Compound I-1072], the IC50 lay in the range of 1000 to 10000 nM.
As to `O=C(NC1CCC(C(=O)N2CCC(O)(Cn3cnc4c(cnn4-c4ccc(F)cc4)c3=O)CC2)CC1)C1CC1` (stereo not shown) [Compound I-1075], the IC50 is 1000 to 10000 nM.
On the same count and under the same terms, with `Cc1ncc(C(=O)N2CCC(O)(Cn3cnc4c(ccn4-c4ccc(F)cc4)c3=O)CC2)o1` [Compound I-1077] the figure was 200 to 1000 nM; with `Cn1cc(C(=O)N2CCC(O)(Cn3cnc4c(ccn4-c4ccc(F)cc4)c3=O)CC2)cn1` [Compound I-1078], 200 to 1000 nM; with `O=C(c1cnn(C2CC2)c1)N1CCC(O)(Cn2cnc3c(ccn3-c3ccc(F)cc3)c2=O)CC1` [Compound I-1079], 200 to 1000 nM.
On to `CN1CCN(c2ncc(C(=O)N3CCC(O)(Cn4cnc5c(cnn5-c5ccc(Cl)cc5)c4=O)CC3)o2)CC1` [Compound I-1085], for which the IC50 lay in the range of 1000 to 10000 nM.
As to `O=C(c1cnc(Oc2ccccn2)o1)N1CCC(O)(Cn2cnc3c(cnn3-c3ccc(Cl)cc3)c2=O)CC1` [Compound I-1086], the IC50 was in the range of 1000 to 10000 nM.
As to `O=C(c1ccc(-n2cnnn2)cc1)N1CCC(O)(Cn2cnc3c(cnn3-c3ccc(Cl)cc3)c2=O)CC1` [Compound I-1087], the IC50 was in the range of 200 to 1000 nM.
With `O=C(c1ccc(-n2ccnc2)cc1)N1CCC(O)(Cn2cnc3c(cnn3-c3ccc(Cl)cc3)c2=O)CC1` [Compound I-1088], the IC50 was 200 to 1000 nM.
On the same count and under the same terms, with `Cc1nnnn1-c1ccc(C(=O)N2CCC(O)(Cn3cnc4c(cnn4-c4ccc(Cl)cc4)c3=O)CC2)cc1` [Compound I-1089] the figure was 200 to 1000 nM; with `O=C(c1ccc(-n2cncn2)cc1)N1CCC(O)(Cn2cnc3c(cnn3-c3ccc(Cl)cc3)c2=O)CC1` [Compound I-1090], 200 to 1000 nM.
Regarding `O=C(c1nnc(C2CC2)o1)N1CCC(O)(Cn2cnc3c(cnn3-c3ccc(Cl)cc3)c2=O)CC1` [Compound I-1091], the IC50 lay in the range of 1000 to 10000 nM.
On to `O=C(c1cn(C2CC2)cn1)N1CCC(O)(Cn2cnc3c(cnn3-c3ccc(Cl)cc3)c2=O)CC1` [Compound I-1092], for which the IC50 lay in the range of 1000 to 10000 nM.
On the same count and under the same terms, with `O=C(c1ccn(C2CC2)n1)N1CCC(O)(Cn2cnc3c(cnn3-c3ccc(Cl)cc3)c2=O)CC1` [Compound I-1093] the figure was 1000 to 10000 nM; with `O=C(c1cnn(C2CC2)c1)N1CCC(O)(Cn2cnc3c(cnn3-c3ccc(Cl)cc3)c2=O)CC1` [Compound I-1095], 200 to 1000 nM.
Still for that read-out and setting: the value for `CN1CCC(Oc2ccc(C(=O)N3CCC(O)(Cn4cnc5c(cnn5-c5ccc(Cl)cc5)c4=O)CC3)cc2)CC1` [Compound I-1096] was 1000 to 10000 nM; that for `Cc1cnc(-c2ccc(C(=O)N3CCC(O)(Cn4cnc5c(cnn5-c5ccc(Cl)cc5)c4=O)CC3)cc2)n1C` [Compound I-1099] was 1000 to 10000 nM; that for `Cc1ncc(-c2ccc(C(=O)N3CCC(O)(Cn4cnc5c(cnn5-c5ccc(Cl)cc5)c4=O)CC3)cc2)n1C` [Compound I-1101] was 1000 to 10000 nM.
On the same count and under the same terms, the value for `O=C(c1ocnc1Cc1ccccc1)N1CCC(O)(Cn2cnc3c(cnn3-c3ccccc3)c2=O)CC1` [Compound I-1108] was greater than 10000 nM; that for `Cc1snc(Cc2ccccc2)c1C(=O)N1CCC(O)(Cn2cnc3c(cnn3-c3ccc(F)cc3)c2=O)CC1` [Compound I-1110] was less than 200 nM; that for `O=C(C1CCC(OC(F)F)CC1)N1CCC(O)(Cn2cnc3c(cnn3-c3ccc(F)cc3)c2=O)CC1` (stereo not shown) [Compound I-1112] was 1000 to 10000 nM.
On to `O=C(C1CCC(Oc2cnccn2)CC1)N1CCC(O)(Cn2cnc3c(cnn3-c3ccc(F)cc3)c2=O)CC1` (stereo not shown) [Compound I-1113], for which the IC50 was less than 200 nM.
The same measure, in the same setting: the value for `Cn1nccc1OC1CCC(C(=O)N2CCC(O)(Cn3cnc4c(cnn4-c4ccc(F)cc4)c3=O)CC2)CC1` (stereo not shown) [Compound I-1114] was 1000 to 10000 nM.
On the same count and under the same terms, the value for `CC1(COc2ccc(-n3ncc4c(=O)n(CC5(O)CCN(C(=O)C6(C)CC6)CC5)cnc43)cc2)COC1` [Compound I-1118] was less than 200 nM.
The same measure, in the same setting: with `CC1(C(=O)N2CCC(O)(Cn3cnc4c(cnn4-c4ccc(OCC5(F)CCC5)cc4)c3=O)CC2)CC1` [Compound I-1119] the figure was less than 200 nM; with `O=C(C1CCC(Oc2ccccn2)CC1)N1CCC(O)(Cn2cnc3c(ccn3-c3ccc(F)cc3)c2=O)CC1` (stereo not shown) [Compound I-1124], less than 200 nM; with `O=C(C[C@H](C(F)F)n1ccc(F)n1)N1CCC(O)(Cn2cnc3c(ccn3-c3ccc(F)cc3)c2=O)CC1` [Compound I-1125], 200 to 1000 nM.
As to `O=C(C[C@@H](C(F)F)n1ccc(F)n1)N1CCC(O)(Cn2cnc3c(ccn3-c3ccc(F)cc3)c2=O)CC1` [Compound I-1126], the IC50 is less than 200 nM.
Still for that read-out and setting: with `O=C(C[C@H](C(F)F)n1cccn1)N1CCC(O)(Cn2cnc3c(cnn3-c3ccc(Cl)cc3)c2=O)CC1` [Compound I-1131] the figure was 1000 to 10000 nM.
Same read-out and setting: with `O=C(C[C@@H](C(F)F)n1cccn1)N1CCC(O)(Cn2cnc3c(cnn3-c3ccc(Cl)cc3)c2=O)CC1` [Compound I-1132] the figure was 200 to 1000 nM; with `CC1(C(=O)N2CCC(O)(Cn3cnc4c(cnn4-c4ccc(OCC5CC(F)(F)C5)cc4)c3=O)CC2)CC1` [Compound I-1133], less than 200 nM; with `Cc1ncc(C(=O)N2CCC(O)(Cn3cnc4c(cnn4-c4ccc(OC5CCC(F)(F)CC5)cc4)c3=O)CC2)o1` [Compound I-1134], 200 to 1000 nM.
Regarding `Cc1ncc(C(=O)N2CCC(O)(Cn3cnc4c(cnn4-c4ccc(OCC5(F)CCC5)cc4)c3=O)CC2)o1` [Compound I-1135], the IC50 was less than 200 nM.
The same measure, in the same setting: with `CC1(COc2ccc(-n3ncc4c(=O)n(CC5(O)CCN(C(=O)C6(C)CCC6)CC5)cnc43)cc2)COC1` [Compound I-1136] the figure was less than 200 nM; with `CC1(C(=O)N2CCC(O)(Cn3cnc4c(cnn4-c4ccc(OCC5(F)CCC5)cc4)c3=O)CC2)CCC1` [Compound I-1137], less than 200 nM; with `Cc1ccc(-n2ncc3c(=O)n(CC4(O)CCN(C(=O)c5ccc(Cl)cc5N)CC4)cnc32)cc1` [Compound I-1140], 200 to 1000 nM.

Staying with this assay, now noted: USP7 assay A and B (table does not say which assay per compound); read-out: USP7_IC50.
In the case of `Cc1ccc(-n2ncc3c(=O)n(CC4(O)CCN(C(=O)c5ccc(OC(F)F)cc5)CC4)cnc32)cc1` [Compound I-1058], the IC50 was in the range of 200 to 1000 nM.
Consider `Cc1ccc(-n2ncc3c(=O)n(CC4(O)CCN(C(=O)C[C@H](C(F)F)n5cccn5)CC4)cnc32)cc1` [Compound I-1060], for which the IC50 was less than 200 nM.
Same read-out and setting: with `Cc1ccc(-n2ncc3c(=O)n(CC4(O)CCN(C(=O)C[C@@H](C(F)F)n5cccn5)CC4)cnc32)cc1` [Compound I-1061] the figure was 1000 to 10000 nM; with `Cc1ccc(-n2ncc3c(=O)n(CC4(O)CCN(C(=O)c5ccc(Oc6ncccn6)cc5)CC4)cnc32)cc1` [Compound I-1063], 200 to 1000 nM; with `O=C(C1CC1)N1CCC(O)(Cn2cnc3c(cnn3-c3ccc(N4CCCc5ccccc54)cc3)c2=O)CC1` [Compound I-1082], 1000 to 10000 nM.
On the same count and under the same terms, with `O=C(CC(c1ccccc1)C(F)F)N1CCC(O)(Cn2cnc3c(cnn3-c3ccccc3)c2=O)CC1` (stereo not shown) [Compound I-1102] the figure was less than 200 nM.
Still for that read-out and setting: with `O=C(C[C@@H](c1ccccc1)C(F)F)N1CCC(O)(Cn2cnc3c(cnn3-c3ccccc3)c2=O)CC1` [Compound I-1103] the figure was less than 200 nM; with `O=C(C[C@H](c1ccccc1)C(F)F)N1CCC(O)(Cn2cnc3c(cnn3-c3ccccc3)c2=O)CC1` [Compound I-1104], 1000 to 10000 nM.
On to `O=C(c1cccc(CN2CCCC2)c1)N1CCC(O)(Cn2cnc3c(cnn3-c3ccc(Cl)cc3)c2=O)CC1` [Compound I-1127], for which the IC50 is 1000 to 10000 nM.
For `O=C(c1ccc(-n2ccnn2)cc1)N1CCC(O)(Cn2cnc3c(cnn3-c3ccc(Cl)cc3)c2=O)CC1` [Compound I-1128], the IC50 is 200 to 1000 nM.
For `O=C(c1ccc(-n2nccn2)cc1)N1CCC(O)(Cn2cnc3c(cnn3-c3ccc(Cl)cc3)c2=O)CC1` [Compound I-1129], the IC50 is 1000 to 10000 nM.
Take `O=C(c1cnc(C2CC2)o1)N1CCC(O)(Cn2cnc3c(cnn3-c3ccc(Cl)cc3)c2=O)CC1` [Compound I-1130]: the IC50 is 200 to 1000 nM.
On to `CO[C@@H]1CCN(c2ccc(-n3ncc4c(=O)n(CC5(O)CCN(C(=O)N(C)C)CC5)cnc43)cc2)C1` [Compound I-1138], for which the IC50 was 1000 to 10000 nM.
For `Cc1ccc(-n2ncc3c(=O)n(CC4(O)CCN(C(=O)C[C@H](C)c5ccccc5)CC4)cnc32)cc1` [Compound I-1139], the IC50 was less than 200 nM.
On the same count and under the same terms, the value for `Cc1ccc(-n2ncc3c(=O)n(CC4(O)CCN(C(=O)c5ccc(OC6CCC(O)CC6)cc5)CC4)cnc32)cc1` (stereo not shown) [Compound I-1141, 5-((4-Hydroxy-1-(4-(4-hydroxycyclohexyloxy)benzoyl)piperidin-4-yl)methyl)-1-p-tolyl-1H-pyrazolo[3,4-d]pyrimidin-4 (5H)-one] was 1000 to 10000 nM.
The same measure, in the same setting: with `Cc1ccc(-n2ncc3c(=O)n(CC4(O)CCN(C(=O)c5ccc(OC6CN(C)C6)cc5)CC4)cnc32)cc1` [Compound I-1142] the figure was 1000 to 10000 nM.
On to `Cc1ccc(-n2ncc3c(=O)n(CC4(O)CCN(C(=O)c5ccc(OC6CCOCC6)cc5)CC4)cnc32)cc1` [Compound I-1144], for which the IC50 fell in the range of 1000 to 10000 nM.
The same measure, in the same setting: with `Cc1ccc(-n2ncc3c(=O)n(CC4(O)CCN(C(=O)c5ccc(OC6CCNCC6)cc5)CC4)cnc32)cc1` [Compound I-1145] the figure was 1000 to 10000 nM; with `O=C(C1CC1)N1CCC(O)(Cn2cnc3c(cnn3-c3ccc(NCCN4CCCCC4)cc3)c2=O)CC1` [Compound I-1146], 200 to 1000 nM.
